# e = 2'-O-(2-methoxyethyl) (MOE); d = 2'-deoxy (DNA)
# Tests used:
# [1] = Plasma cholesterol and triglyceride levels in huApoB/huCETP/mLDLr mouse model (Example 7); assay type: in vivo, mice; settings: huApoB+/−huCETP+/−mLDLr+/− mice (Groups B-E), ASO 25 mg/kg s.c. twice/week
# Source text: The huApoB^+/−huCETP^+/−mLDLr^+/− mice were divided into five groups of 5-7 mice each. […] The saline-injected group served as the control group to which oligonucleotide-treated groups were compared. […] This group served a negative control for the effects of the antisense oligonucleotides against CETP. The groups are further described in Table 27, and are designated letters A-F, by which they will be referred from henceforth.
# HDL and LDL cholesterol were individually measured by HPLC. Triglyceride levels were measured on weeks 0, 3 and 6 with the use of a commercially available triglyceride kit (DCL Triglyceride Reagent; Diagnostic Chemicals Ltd.).
# [2] = Liver function, plasma ALT and AST, dose response (Example 9); assay type: in vivo, mice; settings: 50 mg/kg/wk
# Procedure: Another group received subcutaneous injections of control oligonucleotide ISIS 141923 at a dose of 50 mg/kg/week for 6 weeks. One group of mice received subcutaneous injections of PBS for 6 weeks. The PBS-injected group served as the control group to which treatment groups were compared.
# [3] = Organ weights (Example 6); assay type: in vivo, mice; settings: 50 mg/kg s.c. twice per week for 6 weeks, end of study
# Source text: (§1) The normal chow-fed mice were divided into three treatment groups. The cholesterol-enriched chow-fed mice were divided into three treatment groups. […] One chow-fed group and one cholesterol-enriched chow-fed group received subcutaneous injections of saline twice weekly for 6 weeks. The saline-injected groups served as the control groups to which the corresponding oligonucleotide-treated groups were compared.
# [4] = Plasma cholesterol and triglyceride levels in huCETP transgenic mice (Example 5); assay type: in vivo; settings: 50 mg/kg i.p. twice per week
# Procedure: (§2) The mice were divided into five treatment groups. The first four groups received intraperitoneal injections of ISIS 349511, ISIS 349512, ISIS 349515, or ISIS 349517 at a dose of 50 mg/kg twice per week for 6 weeks. The fifth group received intraperitoneal injections of saline twice weekly for 6 weeks.
# Plasma cholesterol were extracted at weeks 3 and 6 by the method of Bligh and Dyer (Bligh, E. G. and Dyer, W. J. Can. J. Biochem. Physiol. 37: 911-917, 1959) and measured with an Olympus clinical analyzer (Hitachi Olympus AU400e, Melville, N.Y.). HDL, LDL and VLDL cholesterol were individually measured by HPLC. Triglyceride levels were measured with the use of a commercially available triglyceride kit (DCL Triglyceride Reagent; Diagnostic Chemicals Ltd.). The results are presented in Tables 13 and 14 and are expressed in mg/dL. There was a significant increase in HDL levels in mice treated with ISIS oligonucleotides.
# [5] = tested on: CETP protein; assay: Plasma CETP protein by ELISA in huCETP transgenic mice (Example 5); assay type: in vivo, human; settings: normal chow, 50 mg/kg i.p. twice per week for 6 weeks, compared to PBS control
# Procedure: as §2
# (§3) Plasma levels of CETP protein were measured by ELISA (Alpco, N.H.). […] The results are expressed as percentage inhibition compared to the PBS control.
# [6] = Plasma cholesterol and triglyceride levels (Example 6); assay type: in vivo, mice; settings: 50 mg/kg s.c. twice per week
# Source text: as §1
# Plasma cholesterol were extracted at weeks 3 and 6 by the method of Bligh and Dyer (Bligh, E. G. and Dyer, W. J. Can. J. Biochem. Physiol. 37: 911-917, 1959) and measured on weeks 0, 3 and 6 with an Olympus clinical analyzer (Hitachi Olympus AU400e, Melville, N.Y.). HDL, LDL and VLDL cholesterol were individually measured by HPLC. Triglyceride levels were measured on weeks 0, 3 and 6 with the use of a commercially available triglyceride kit (DCL Triglyceride Reagent; Diagnostic Chemicals Ltd.). VLDL levels were measured on week 6. The results are presented in Tables 22-26 and are expressed in mg/dL.
# [7] = tested on: CETP protein; assay: Plasma CETP protein by ELISA, normal or cholesterol-enriched chow (Example 6); assay type: in vivo, human; settings: 50 mg/kg s.c. twice per week
# Procedure: as §1, §3
substance,measurement,setting,value
"ISIS 141923: CCTTCCCTGAAGGTTCCTCC, 5-10-5 MOE gapmer, a control oligonucleotide which has no known murine target (sugars from the 5' end e5 d10 e5, backbone and methylation of C not given here) [reference compound]",% HDL/total cholesterol,[1]; Week 0,25%
same,HDL cholesterol levels,[1]; Week 0,50 mg/dL
same,LDL cholesterol levels,[1]; Week 0,123 mg/dL
same,Total cholesterol levels,[1]; Week 0,201 mg/dL
same,Triglyceride levels,[1]; Week 0,137 mg/dL
same,% HDL/total cholesterol,[1]; Week 3,24%
same,HDL cholesterol levels,[1]; Week 3,55 mg/dL
same,LDL cholesterol levels,[1]; Week 3,149 mg/dL
same,Total cholesterol levels,[1]; Week 3,228 mg/dL
same,Triglyceride levels,[1]; Week 3,177 mg/dL
same,% HDL/total cholesterol,[1]; Week 6,31%
same,HDL cholesterol levels,[1]; Week 6,74 mg/dL
same,LDL cholesterol levels,[1]; Week 6,150 mg/dL
same,Total cholesterol levels,[1]; Week 6,235 mg/dL
same,Triglyceride levels,[1]; Week 6,192 mg/dL
same,ALT levels,[2]; Week 0,27 IU/L
same,AST levels,[2]; Week 0,26 IU/L
same,ALT levels,[2]; Week 3,27 IU/L
same,AST levels,[2]; Week 3,46 IU/L
same,ALT levels,[2]; Week 6,45 IU/L
same,AST levels,[2]; Week 6,107 IU/L
"ISIS 349511: 5-10-5 MOE gapmer CCCGACCTCCTTGGAGACTT (sugars from the 5' end e5 d10 e5, backbone and methylation of C not given here)",Kidney weight,[3]; Cholesterol chow,305 mg
same,Liver weight,[3]; Cholesterol chow,1.4 g
same,Spleen weight,[3]; Cholesterol chow,80 mg
same,Kidney weight,[3]; Normal chow,248 mg
same,Liver weight,[3]; Normal chow,1.0 g
same,Spleen weight,[3]; Normal chow,74 mg
same,Percentage of HDL in total cholesterol,[4]; Week 3,73%
same,Percentage of HDL in total cholesterol,[4]; week 6,76%
same,HDL,"[4]; plasma, week 3",60 mg/dL
same,LDL,"[4]; plasma, week 3",15 mg/dL
same,Total cholesterol,"[4]; plasma, week 3",83 mg/dL
same,Triglycerides,"[4]; plasma, week 3",87 mg/dL
same,HDL,"[4]; plasma, week 6",66 mg/dL
same,LDL,"[4]; plasma, week 6",17 mg/dL
same,Total cholesterol,"[4]; plasma, week 6",88 mg/dL
same,Triglycerides,"[4]; plasma, week 6",84 mg/dL
same,VLDL,"[4]; plasma, week 6",4 mg/dL
same,Percent inhibition of plasma CETP protein levels,[5],75%
same,% HDL/total cholesterol,[1]; Week 0,24%
same,HDL cholesterol levels,[1]; Week 0,49 mg/dL
same,LDL cholesterol levels,[1]; Week 0,129 mg/dL
same,Total cholesterol levels,[1]; Week 0,208 mg/dL
same,Triglyceride levels,[1]; Week 0,145 mg/dL
same,% HDL/total cholesterol,[1]; Week 3,30%
same,HDL cholesterol levels,[1]; Week 3,64 mg/dL
same,LDL cholesterol levels,[1]; Week 3,126 mg/dL
same,Total cholesterol levels,[1]; Week 3,212 mg/dL
same,Triglyceride levels,[1]; Week 3,199 mg/dL
same,% HDL/total cholesterol,[1]; Week 6,35%
same,HDL cholesterol levels,[1]; Week 6,77 mg/dL
same,LDL cholesterol levels,[1]; Week 6,132 mg/dL
same,Total cholesterol levels,[1]; Week 6,223 mg/dL
same,Triglyceride levels,[1]; Week 6,248 mg/dL
same,HDL cholesterol levels,"[6]; Cholesterol chow, Week 0",51 mg/dL
same,LDL cholesterol levels,"[6]; Cholesterol chow, Week 0",179 mg/dL
same,Total cholesterol levels,"[6]; Cholesterol chow, Week 0",252 mg/dL
same,Triglyceride levels,"[6]; Cholesterol chow, Week 0",101 mg/dL
same,HDL cholesterol levels,"[6]; Cholesterol chow, Week 3",85 mg/dL
same,LDL cholesterol levels,"[6]; Cholesterol chow, Week 3",576 mg/dL
same,Total cholesterol levels,"[6]; Cholesterol chow, Week 3",714 mg/dL
same,Triglyceride levels,"[6]; Cholesterol chow, Week 3",94 mg/dL
same,HDL cholesterol levels,"[6]; Cholesterol chow, Week 6",136 mg/dL
same,LDL cholesterol levels,"[6]; Cholesterol chow, Week 6",558 mg/dL
same,Total cholesterol levels,"[6]; Cholesterol chow, Week 6",809 mg/dL
same,Triglyceride levels,"[6]; Cholesterol chow, Week 6",99 mg/dL
same,VLDL cholesterol levels,"[6]; Cholesterol chow, Week 6",115 mg/dL
same,HDL cholesterol levels,"[6]; Normal chow, Week 0",51 mg/dL
same,LDL cholesterol levels,"[6]; Normal chow, Week 0",176 mg/dL
same,Total cholesterol levels,"[6]; Normal chow, Week 0",254 mg/dL
same,Triglyceride levels,"[6]; Normal chow, Week 0",80 mg/dL
same,HDL cholesterol levels,"[6]; Normal chow, Week 3",56 mg/dL
same,LDL cholesterol levels,"[6]; Normal chow, Week 3",148 mg/dL
same,Total cholesterol levels,"[6]; Normal chow, Week 3",227 mg/dL
same,Triglyceride levels,"[6]; Normal chow, Week 3",90 mg/dL
same,HDL cholesterol levels,"[6]; Normal chow, Week 6",98 mg/dL
same,LDL cholesterol levels,"[6]; Normal chow, Week 6",178 mg/dL
same,Total cholesterol levels,"[6]; Normal chow, Week 6",327 mg/dL
same,Triglyceride levels,"[6]; Normal chow, Week 6",101 mg/dL
same,VLDL cholesterol levels,"[6]; Normal chow, Week 6",50 mg/dL
same,Percent inhibition of plasma CETP protein levels,"[7]; Cholesterol chow, Week 3",89%
same,Percent inhibition of plasma CETP protein levels,"[7]; Cholesterol chow, Week 6",85%
same,Percent inhibition of plasma CETP protein levels,"[7]; Normal chow, Week 3",81%
same,Percent inhibition of plasma CETP protein levels,"[7]; Normal chow, Week 6",85%
